# Results taken from PubChem BioAssay (NCI).
#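 Test compounds were applied to cells in 96-well plates for 48 hours at 5 doses. Abbreviation: GI50, concentration required for 50% inhibition of growth. Definition used: TGI = concentration required for complete inhibition of growth.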
# Tests used:
# Experiment in all cases: NCI anticancer screen, dose series, 48 h
# TK-10 renal = tested on: TK-10 renal
# OVCAR-3 ovarian = tested on: OVCAR-3 ovarian
# UO-31 renal = tested on: UO-31 renal
# MOLT-4 leukemia = tested on: MOLT-4 leukemia
# RXF 393 renal = tested on: RXF 393 renal
# OVCAR-8 ovarian = tested on: OVCAR-8 ovarian
# SF-268 CNS = tested on: SF-268 CNS
# HOP-62 NSCLC = tested on: HOP-62 NSCLC
# NCI-H460 lung = tested on: NCI-H460 lung
# KM12 colon = tested on: KM12 colon
SMILES,GI50 (TK-10 renal) [µM],TGI (TK-10 renal) [µM],GI50 (OVCAR-3 ovarian) [µM],TGI (OVCAR-3 ovarian) [µM],GI50 (UO-31 renal) [µM],TGI (UO-31 renal) [µM],GI50 (MOLT-4 leukemia) [µM],TGI (MOLT-4 leukemia) [µM],GI50 (RXF 393 renal) [µM],TGI (RXF 393 renal) [µM],GI50 (OVCAR-8 ovarian) [µM],TGI (OVCAR-8 ovarian) [µM],GI50 (SF-268 CNS) [µM],TGI (SF-268 CNS) [µM],GI50 (HOP-62 NSCLC) [µM],TGI (HOP-62 NSCLC) [µM],GI50 (NCI-H460 lung) [µM],TGI (NCI-H460 lung) [µM],TGI (KM12 colon) [µM],GI50 (KM12 colon) [µM]
NC(=NC1C2CC3CC(C2)CC1C3)Nc1ccc(I)cc1 (configuration not stated),2.59,8.85,3.97,15,2.67,12.8,2.22,8.79,3.1,13.5,6.61,23.4,4.52,17.8,2.46,8.38,3.66,13,,
C[P+](C)(CC(F)(F)F)c1ccccc1,,> 100,,> 100,,> 100,,> 100,,> 100,,> 100,,,,> 100,,> 100,> 100,
CCOC(=O)c1cc2cc([N+](=O)[O-])ccc2oc1=O,,,,> 100,,> 100,,> 100,,> 100,,> 100,,> 100,,> 100,,> 100,> 100,
Cc1ccc(C)c2sc3cc(=O)ccc-3nc12,,66.8,,> 100,,> 100,,69.6,,,,> 100,,> 100,,> 100,,> 100,> 100,
Clc1ccc(CCN2CCOCC2)c(Cl)c1,,,,,,> 100,,> 100,,> 100,,> 100,,> 100,,> 100,,> 100,> 100,
C1CCN2CC34CC(CC5CCCN(C6CCCC3N6)C54)C2C1 (configuration not stated),,> 100,,> 100,,,,> 100,,> 100,,> 100,,> 100,,> 100,,> 100,> 100,
Clc1cccc(C2SCc3nc4ccccc4n32)c1Cl (configuration not stated),,29.2,,33.7,,25.8,,41.9,,29.6,,37,,36.5,,32,,34.6,,
O=C1C=Cc2noc3cccc1c23,,32.3,,10.9,,15.3,,> 100,,5.67,,8.13,,12.4,,,,,19.1,
N#CC(C#N)=C/C=C/c1cccc([N+](=O)[O-])c1,,,0.533,4.36,,,0.391,13.6,0.8,2.06,0.329,1.36,1.54,12.9,1.81,6.39,1.21,2.68,3.2,1.28
CN(C)/C(=N/C(=O)Nc1ccccc1)SCc1ccccc1,,> 100,,> 100,,> 100,,> 100,,> 100,,> 100,,> 100,,> 100,,,> 100,
C=C1C(=O)O[C@H]2[C@H](OC(C)=O)[C@@H](C)CCC/C(C)=C/CC[C@]3(CO3)[C@H](O)C[C@@H]12,1.83,4.62,2.36,5.69,6.29,19.9,2.28,5.82,3.16,11.7,3.06,10.8,3.93,13.6,,,5.35,17.5,8.96,2.33
